Among the data in patent US5854241A, “Pyrido[3,2,1-I,J][3,1]benzoxazine derivatives” (Bayer Aktiengesellschaft, priority 1994, dated 1998) are MIC values, retold here.

Converted amounts (≈) assume the structure as drawn. Where two headings read alike, the source gives them in different places.

For orientation: MIC means the least concentration at which growth counts as inhibited.

Holding throughout (assay type): cell-based
Assay [1] concerns Staphylococcus aureus. The experiment in a line: MIC by serial agar dilution, Staphylococcus aureus. As to conditions: 20 h, Iso-Sensitest agar, 37° C., approx. 20 hours. Here is the method:
(§1) The minimum inhibitory concentrations (MICs) were determined by serial dilution methods using Iso-Sensitest agar (Oxoid). For each test substance, a series of agar plates was prepared whose active compound concentrations decreased as the dilution was doubled. The agar plates were inoculated using a multipoint inoculator (Denley). The cultures used for inoculation were overnight cultures of the pathogen which had previously been diluted to such an extent that each inoculation point contained approximately 10^4 colony-forming units. The inoculated agar plates were incubated at 37° C., and the microbial growth was read off after approximately 20 hours.
(§2) The following table lists the MIC values of some of the compounds according to the invention in comparison with 9-fluoro-3-methyl-10-(4-methyl-1-piperazinyl)-7-oxo-1H,3H,7H-pyrido[3,2,1- i,j]-[3,1]-benzoxazine-6-carboxylic acid (EP-O 373 531) as reference compound.

Assay [2] has as its system Salmonella. The experiment in a line: MIC by serial agar dilution, Salmonella. As to conditions: Salmonella strain 1 Fr; Iso-Sensitest agar, 37° C., approx. 20 hours. Here is the method: as §1, §2
The test system of assay [3] is Klebsiella pneumoniae. The experiment in a line: MIC by serial agar dilution, Klebsiella pneumoniae. As to conditions: Klebsiella pneumoniae strain 2363 Ge; Iso-Sensitest agar, 37° C., approx. 20 hours. On the procedure: as §1, §2
For orientation: Agar dilution tests growth on a series of plates holding different concentrations.

Assay [4] concerns Pseudomonas. The experiment in a line: MIC by serial agar dilution, Pseudomonas. As to conditions: Pseudomonas strain BS 698 TGD; Iso-Sensitest agar, 37° C., approx. 20 hours. On the procedure:
as §1, §2

For assay [5], the system named is E. coli. The experiment in a line: MIC by serial agar dilution, E. coli. The settings on record: Escherichia coli, 20 h, Iso-Sensitest agar, 37° C., approx. 20 hours. Here is the method: as §1, §2
In assay [6] the test system is Enterobacter. Nature of the assay: MIC by serial agar dilution, Enterobacter. The settings on record: Enterobacter strain 0,4 Ge 02-33; Iso-Sensitest agar, 37° C., approx. 20 hours. Here is the method: as §1, §2
The mark [7] stands for this setting: Staphylococcus aureus strain 3781 Ge.
Setting [8] is: Staphylococcus aureus strain Z 2 Lit.
The mark [9] stands for this setting: E. coli strain Z 431 Lit, read-out: MIC.

Turning to `CC1OCc2c(N3CC4CC=CC(N)C4C3)c(F)cc3c(=O)c(C(=O)O)cn1c23` (centres unmarked) [Example 1, 10-(2-Amino-8-azabicyclo[4,3,0]non-3-en-8-yl)-9-fluoro-3-methyl-7-oxo-1H,3H ,7H-pyrido-[3,2,1-i,j][3,1]benzoxazine6-carboxylic acid], the minimum inhibitory concentration (MIC) turned out to be 0.12 mg/L (≈ 0.3 µM) in assay [1] (setting [7]); 0.12 mg/L (≈ 0.3 µM) in assay [1] (setting [8]); 0.06 mg/L (≈ 0.15 µM) in assay [2]; 0.06 mg/L (≈ 0.15 µM) in assay [3]; 4 mg/L (≈ 10 µM) in assay [4]; 4 mg/L (≈ 10 µM) in assay [5] (E. coli strain 21 Bui). In addition, the MIC is 0.015 mg/L (≈ 0.0376 µM) in assay [5] (setting [9]) and 0.25 mg/L (≈ 0.626 µM) in assay [6].
As for `CC1OCc2c(N3CC4CCCNC4C3)c(F)cc3c(=O)c(C(=O)O)cn1c23` (centres unmarked) [Example 4, 10-(2.8-Diazabicyclo[4,3,0]nonan-8-yl)-9-fluoro-3-methyl-7-oxo-1H,3H,7H-pyr ido-[3,2,1-i,j][3,1]benzoxazine-6-carboxylic acid], the minimum inhibitory concentration (MIC) in assay [1] (setting [7]) was 8 mg/L (≈ 20.6 µM); in assay [1] (setting [8]) it was 0.5 mg/L (≈ 1.29 µM); in assay [2] it was 0.25 mg/L (≈ 0.645 µM); in assay [3], 0.12 mg/L (≈ 0.31 µM); in assay [4] it was 8 mg/L (≈ 20.6 µM); in assay [5] (E. coli strain 21 Bui) it was 4 mg/L (≈ 10.3 µM). For the same compound, the MIC in assay [5] (setting [9]) came out at 0.06 mg/L (≈ 0.155 µM); in assay [6], 0.12 mg/L (≈ 0.31 µM).
Consider `CNC1C=CCC2CN(c3c(F)cc4c(=O)c(C(=O)O)cn5c4c3COC5C)CC21` (centres unmarked) [Example 5, 9-Fluoro-3-methyl-10-(2-methylamino-8-azabicyclo[4.3.0]non-3-en-8-yl)-7-oxo-1H,3H,7H-pyrido [3,2,1-i,j][3,]benzoxazine-6-carboxylic acid], for which the MIC came out at 0.12 mg/L (≈ 0.29 µM) in assay [1] (setting [7]); 0.12 mg/L (≈ 0.29 µM) in assay [1] (setting [8]); 0.12 mg/L (≈ 0.29 µM) in assay [2]; 0.12 mg/L (≈ 0.29 µM) in assay [3]; 16 mg/L (≈ 38.7 µM) in assay [4]; 4 mg/L (≈ 9.67 µM) in assay [5] (E. coli strain 21 Bui). In addition, the MIC in assay [5] (setting [9]) is at most 0.015 mg/L; in assay [6], 0.12 mg/L (≈ 0.29 µM).
`CC1OCc2c(N3CCN(C)CC3)c(F)cc3c(=O)c(C(=O)O)cn1c23` (centres unmarked) [Reference, 9-fluoro-3-methyl-10-(4-methyl-1-piperazinyl)-7-oxo-1H,3H,7H-pyrido[3,2,1-i,j]-[3,1]-benzoxazine-6-carboxylic acid, reference compound]: the MIC in assay [1] (setting [7]) amounted to 128 mg/L (≈ 354 µM); in assay [1] (setting [8]), 16 mg/L (≈ 44.3 µM); in assay [2], 1 mg/L (≈ 2.77 µM); in assay [3], 0.5 mg/L (≈ 1.38 µM); in assay [4], 64 mg/L (≈ 177 µM); in assay [5] (E. coli strain 21 Bui), 0.05 mg/L (≈ 0.138 µM). Moreover, the MIC in assay [5] (E. coli strain Z 431 Lit) is 0.05 mg/L (≈ 0.138 µM); in assay [6] it was 1 mg/L (≈ 2.77 µM).
